# “Also recorded” adds a separate entry of the source.
# How the values were obtained:
# [1] = test system: pAC499 (TripleX/GUS) with pACAG084 ((OCS)3MAS/nTR) or pACAG049 (MAR-(OCS)3MAS/nTR); assay: Time series of GUS induction in whole rooted plants; assay type: in vivo, tobacco; conditions: roots, tetracycline 2 mg/l, FIG. 16
# Method: FIG. 16—Induction of GUS Gene in Double Transformants: Time Series. Time series were run with the best double transformants carrying pAC499 (TripleX/GUS) and either of pACAG084 ((OCS)3MAS/nTR) or pACAG049 (MAR-(OCS)3MAS/nTR). Three weeks-old rooted plants were transferred from agar to magenta boxes with liquid medium and tetracycline 2 mg/l. Tissue samples were regularly taken from roots and assayed for GUS.
# Time series were run with the best double transformants carrying pAC499 (TripleX/GUS) and either of pACAG084 ((OCS)3MAS/nTR) or pACAG049 (MAR-(OCS)3MAS/nTR). Three week-old rooted plants were transferred from agar to magenta boxes with liquid medium and tetracycline 2 mg/l. Tissue samples were regularly taken from leaves and roots and assayed for GUS. […] The latter result was consistently observed, as well as, in experiments from the literature.
# tobacco seedlings = assay: Visual evaluation of seedlings for toxicity in seed germination test
# From the text: The purpose of this experiment was to determine the concentration curve for selected analogs. Seeds of homozygous tobacco carrying wild type tet Receptor and TripleX-driven GUS gene (pAC489/pAC499 double transformants) were germinated in presence of several analogs at different concentrations. Seedlings were visually evaluated for toxicity, collected and assayed. Each point on the graph represents an average of three samples.
# Seeds of T2 homozygous tobacco carrying wild type tet Receptor and TripleX-driven GUS gene were germinated in the presence of several new analogs at different concentrations. Seedlings were visually evaluated for toxicity, collected and assayed.
# The next step in evaluating the analogs was to determine their respective concentration curve. Seeds of homozygous tobacco carrying wild type tet Receptor and TripleX-driven GUS gene (pAC489/pAC499 double transformants) were germinated in the presence of several analogs at different concentrations. Seedlings were visually evaluated for toxicity, collected and assayed.
# [2] = test system: wild type tet Receptor and GUS gene controlled by TripleX promoter (pAC489/pAC499 double transformants); assay: Induction of the tet system in protoplast assays (GUS fluorescent assay); assay type: cell-based, tobacco; conditions: for magnitude of derepression (induction of GUS): protoplasts, seventh day of cultivation, FIG. 17
# Method: Logarithmic scale is used for concentration axis.
# Protoplasts were cultivated in the dark at 26° C. […] 100 μl of supernatant was used for the assay.
# [3] = test system: wild type tet Receptor and TripleX-driven GUS gene (pAC489/pAC499 double transformants); assay: Seed germination test: induction of GUS gene in seedlings; assay type: in vivo, tobacco; conditions: for inducing activity (GUS reporter gene): seed germination test, FIG. 18
# Mesophyll protoplasts = assay: Toxicity of chemicals to protoplasts (division rate); conditions: FIG. 17
# Method: Mesophyll protoplasts were isolated from T2 transgenic tobacco carrying both wild type tet Receptor and GUS gene controlled by TripleX promoter (pAC489/pAC499 double transformants) and were cultivated at a concentration of 5×10^4 cells/ml in liquid KM medium supplemented with tet analogs at 2-5 mg/l in the dark at 26° C. Total and divided protoplasts were counted and GUS fluorescent assays were performed on the seventh day of cultivation. Toxicity of chemicals was evaluated by division rate—the number of divisions divided by the total number of viable cells and multiplied by 100. Each point on the graphs represents an average of three samples.
# Protoplasts were cultivated in the dark at 26° C. First divisions were usually observed after 36-60 hours of cultivation; second and sometimes third divisions were visible beginning from the fifth day. Total and divided protoplasts were counted and GUS fluorescent assays performed on the seventh day. In all experiments protoplasts were counted in a fixed volume of 2 mm^3 using hemocytometer (Hausser Scientific Partnership). Toxicity of chemicals was evaluated by division rate—the number of divisions divided by the total number of viable cells and multiplied by 100. […] 100 μl of supernatant was used for the assay. […]
# [4] = test system: tetracycline-sensitive bacteria; conditions: concentrations of 0.3 mg/l and lower; according to supplier; cited from earlier work
# lac repressor = lac repressor (Escherichia coli, UniProt P03023); conditions: Barkley and Bourgeois, 1980; cited from earlier work
# cells = conditions: cited from earlier work
# Chain of lac repressor (P03023 whole entry): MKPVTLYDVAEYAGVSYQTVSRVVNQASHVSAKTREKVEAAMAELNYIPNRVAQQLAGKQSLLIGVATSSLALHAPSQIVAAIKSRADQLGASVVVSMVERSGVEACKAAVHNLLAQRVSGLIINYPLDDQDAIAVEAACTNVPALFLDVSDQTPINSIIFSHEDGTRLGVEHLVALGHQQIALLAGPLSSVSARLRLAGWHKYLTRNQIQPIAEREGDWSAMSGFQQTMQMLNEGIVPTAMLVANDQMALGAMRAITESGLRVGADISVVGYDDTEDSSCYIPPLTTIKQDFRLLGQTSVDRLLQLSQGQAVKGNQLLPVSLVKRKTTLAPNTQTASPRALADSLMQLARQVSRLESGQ
structure (smiles),measurement,setting,value
CN(C)[C@@H]1C(O)=C(C(N)=O)C(=O)[C@@]2(O)C(O)=C3C(=O)c4c(O)cccc4[C@@](C)(O)[C@H]3C[C@@H]12 [tetracycline],magnitude of induction at maximum,[1],3.5 fold
same,toxicity evaluation (growth of plantlets),"tobacco seedlings; concentration of 10 mg/l, FIG. 19 experiment",slightly stunted growth of plantlets
"Cc1c2c(c(O)c3c(O)cccc13)C(=O)[C@]1(O)C(=O)C(C(N)=O)=C(O)[C@@H](N(C)C)[C@@H]1C2 [1665-56-1, anhydrotetracycline]",magnitude of derepression (induction of GUS),[2],not a good derepressing agent; also recorded: able to induce the system
same,inducing activity (GUS reporter gene),[3],negligible induction
"CN(C)C1C(=O)C(C(N)=O)=C(O)C2(O)C(=O)C3=C(O)c4c(O)ccc(Br)c4CC3CC12 (centres unmarked) [101057-85-6, 7-bromo-6-deoxy-6-demethyl tetracycline]",inducing activity (GUS reporter gene),[3],moderate inducer
"CN(C)C1C(=O)C(C(N)=O)=C(O)C2(O)C(=O)C3=C(O)c4c(O)cccc4CC3CC12 (centres unmarked) [95702-03-7, 6-deoxy-6-demethyl tetracycline]",toxicity to plant cells,Mesophyll protoplasts,the same magnitude of derepression and toxicity as tetracycline
same,inducer potency compared with tetracycline,[2]; concentrations of 0.3 mg/l and lower,more potent inducer at concentrations of 0.3 mg/l and lower
same,magnitude of derepression (induction of GUS),[2],the same magnitude of derepression and toxicity as tetracycline
same,toxicity to tetracycline-sensitive bacteria,[4],not toxic to tetracycline-sensitive bacteria
same,toxicity compared with other inducers,"tobacco seedlings; concentration curve experiment, FIG. 19",lower toxicity than doxycycline and tetracycline
same,inducing activity (GUS reporter gene),[3],"higher than that of the industry standard, doxycycline"
same,induction of the GUS reporter gene,[3]; summary of in vitro tests of several tetracycline analogs,very good induction
"CC(C)S[C@@H]1O[C@H](CO)[C@H](O)[C@H](O)[C@H]1O [IPTG, isopropyl-B-D-thiogalactopyranoside]",reduction of the affinity of repressor for the operator,lac repressor,300 fold
same,toxicity of the level required to induce a lac repressor system,cells,cytotoxic to cells
